Data published in article PMC4383039 (Science translational medicine, 2015).
Values after ≈ are worked out from the molar mass of the structure shown. Values joined by “and” are separate entries in the source; they are usually repeats but may differ in a detail not shown here. Equal values may be shown once.

Experiments:
Assay type in all cases: cell-based, Mycobacterium tuberculosis
[1] = test system: 4-hydroxy-2-pyridone resistance mutants of Mtb
[2] = test system: H37Rv∷pMV262-InhA strains; test: microbe, parasite or virus in culture; conditions: for MIC50: Mycobacterium tuberculosis, H37RV, read-out: Compound MIC50
[3] = test system: Mtb H37Rv

Row | Structure (SMILES) | Compound MIC50 [1] | fold more resistant than the parental H37Rv strain [1] | MIC50 [2] [µM] | Mutation frequency [3] | frequency of resistance [3] | Compound MIC50 [2] | resistance, MIC50 fold [1] [fold] | MIC50 fold shift with the Mtb H37Rv strain [2]
1 | CC(C)Cc1cc(O)c(-c2ccccc2)c(=O)[nH]1 [NITD-529, 4-hydroxy-6-isobutyl-3-phenylpyridin-2(1H)-one] | > 40 µM | at least 25 fold | 2.59 (≈ 0.63 µg/mL) | 1.2×10^-8 | 1 × 10^−8 |  |  | 
2 | [H]/N=C(/N)N[C@H]1[C@H](O)[C@@H](O)[C@H](O[C@@H]2O[C@@H](C)[C@](O)(C=O)[C@H]2O[C@@H]2O[C@@H](CO)[C@H](O)[C@@H](O)[C@@H]2NC)[C@@H](N/C(N)=N\[H])[C@@H]1O [streptomycin] | 0.1 µM and 0.09 µM and 0.08 µM and 0.06 µM |  | 0.074 (≈ 0.043 µg/mL) |  |  | 0.084 µM and 0.079 µM and 0.075 µM |  | 
3 | CCc1cc(C(N)=S)ccn1 [ethionamide] |  |  |  |  |  |  | > 3 | 
4 | NNC(=O)c1ccncc1 [isoniazid] |  |  | 0.51 (≈ 0.0699 µg/mL) | ∼ 1× 10^-6 |  |  | > 3 | 0.51 (2.04×)
